Assay results: US5585105A, “Utilization of derivatives of 2,5-dihydroxyphenylcarboxylic acids, their homologs, and their salts in preparation of a cosmetic or dermatological composition with a depigmenting action” (L'Oreal, priority 1991, dated 1996)

Key:
[1] = test system: fungal tyrosinase; test: in vitro tyrosinase activity inhibition test; format: biochemical; conditions: decrease in maximum dopachrome formed (OD 475 nm, plateau) vs without inhibitor; inhibitor 50 mol. % relative to tyrosine; pH 6.5, 25° C.
Text: According to this test, the quantity of dopachrome formed during the chain of reactions by which tyrosine is converted into melanins is monitored by visible spectrometry at 475 nm. These reactions are catalyzed in vitro by fungal tyrosinase in the presence of a reducing cosubstrate (for example L-dopa in a small quantity) to initiate the hydroxylation reaction of L-tyrosine into L-dopa. The L-dopa is then oxidized catalytically into dopaquinone and then into dopachrome, an intermediate formed prior to the nonenzymatic oxidation reactions that lead to formation of melanins.
The inhibitor concentrations are established at 50 mol. % relative to the tyrosine concentration in the reaction medium.
The effect of inhibition is expressed by the decrease in the maximum quantity of dopachrome formed (optical density value at 475 nm read from the plateau of the curve) relative to the quantity obtained in the absence of inhibitor.
A--0.1 M phosphate buffer, pH=6.5 (Tween 20, 1%)
B--Stock solution of L-tyrosine, 2×10^-3 M in A
C--Stock solution of L-dopa, 10^-4 M in A
D--Stock solution of fungal tyrosinase, 2400 units/ml, in A
E--Stock solution of inhibitor, 10^-2 M in A (solutions C and D must be prepared on the day of the experiment).
reference cell: 3 ml of A
homogenize and equilibrate at 25° C.
mix rapidly and observe kinetics by measuring absorbance at 475 nm as a function of time.

[2] = test system: melanocyte; conditions: background statement; cited from earlier work

Structure (SMILES) | % change in maximum dopachrome vs no inhibitor [1] [%] | irritation and cytotoxicity to the melanocyte [2]
O=C(O)CCc1cc(O)ccc1O | -42 | 
Cc1cc(O)c(CCC(=O)O)cc1O | -64 | 
Cc1c(O)cc(CC(=O)O)c(O)c1C | -59 | 
Oc1ccc(O)cc1 [hydroquinone, reference compound] | -33 | particularly irritating and cytotoxic to the melanocyte
Cc1cc(O)c(CC(=O)O)cc1O | -66 | 
COC(=O)Cc1cc(O)c(C)cc1O | -87 | 
